Source: patent US9173875B2, “Treatment for nicotine-induced lung disease using peroxisome proliferator-activated receptor gamma agonists” (Los Angeles Biomedical Research Institute at Harbor-UCLA …, priority 2006, dated 2015)

Columns and labels:
WI38 cells [1] = assay: Western blot of lipogenic and myogenic marker proteins in WI38 cells (nicotine with or without lipogenic pathway agonists); format: cell-based, human; conditions: nicotine 1×10^−9, 7 days
Description: (§1) The human embryonic cell line WI38 was obtained from American Type Culture Collection (Rockville, Md.). Cells were grown in MEM plus 10% FBS at 37° C. in six-well plates, four-well slides, and 60- and 100-mm culture dishes as needed.
Western blotting was performed with modifications of methods described previously (Ayad and Wong (1998) Crit. Care Med 26: 1277-1282). […] Equal amounts of the protein (25 μg) from the supernatant were dissolved in electrophoresis sample buffer and were subjected to SDS-PAGE (4-12% gradient) followed by electrophoretic transfer to a nitrocellulose membrane. Nonspecific binding of antibody was blocked by washing with Tris-buffered saline (TBS) containing 5% milk for 1 h. The blot was then subjected to two brief washes with TBS plus 0.5% Tween 20, incubated in TBS plus 0.1% Tween 20 and the specific primary antibodies (PPAR 1:2,000, Alexis Biochemicals, San Diego, Calif.; -SMA 1:50,000, Sigma; ADRP 1:3,000, a kind gift from Dr. Constantine Londos, National Institute of Diabetes and Digestive and Kidney Diseases) overnight at 4° C. Blots were then washed in TBS plus 0.1% Tween 20 and then incubated for 1 h in secondary antibody, washed, and developed with a chemiluminescent substrate (ECL; Amersham, Arlington Heights, Ill.) following the manufacturer's protocol.

WI38 cells [2] = assay: Triglyceride uptake assay ([3H]triolein) in WI38 cells; format: cell-based, human
Description: as §1
The method used to quantitate triglyceride uptake by fetal rat lung fibroblasts has been described previously (Torday et al. (1995) Biochim Biophys Acta 1254: 198-206). Briefly, culture medium was replaced with DMEM containing 20% adult rat serum mixed with [3H]triolein (5 μCi/ml). The cells were incubated at 37° C. in 5% CO2+balance air for 4 h. At the termination of the incubation, the medium was decanted, the cells were rinsed twice with 1 ml of ice-cold MEM, and the cells were removed from the culture plate after a 5- to 10-min incubation with 2 ml of a 0.05% trypsin solution. An aliquot of the cell suspension was taken for protein assay (Bradford (1976) Anal Biochem 72: 248-254), and the remaining cell suspension was extracted for neutral lipid content.

fetal rat lung explants = assay: In vitro ATII cell proliferation in lung explants (PCNA and SP-C labeling); format: cell-based; conditions: nicotine 24 h; P<0.05, n=4
Description: Explants derived from three to five litters of rats were used for each experiment during the course of the studies. Lungs were harvested from fetal rats under sterile conditions. The lung tissue was chopped into −1-mm cubes and incubated in 0.5 ml of Waymouth's MB-252/1 medium containing penicillin (100 U/ml)-streptomycin (100 U/ml) and Fungizone (2.5 μg/ml) in six-well plates while rocking on an oscillating platform (3 cycles/min) in 5% CO2-95% air at 37° C. The explants were allowed to attach for 1-2 h.
Cultured ATII cells or explants were treated with nicotine under various experimental conditions (see below), and cell proliferation was determined by Cell Proliferation Assay (Promega) or dual PCNA and SP-C labeling, respectively (see above).

ATII cells [3] = assay: Phospholipid synthesis ([3H]choline incorporation into saturated phosphatidylcholine) by ATII cells after in utero nicotine; format: in vivo, Sprague-Dawley rat; conditions: nicotine 1 mg/kg in utero; vs control, P<0.05, n=6
Description: (§2) Incorporation of [methyl-3H]choline chloride (NEN Dupont) into saturated phosphatidylcholine was determined in monolayers of cultured explants and ATII cells. […] After incubation, explants and cells were washed three times with ice-cold PBS. The explants and the scraped cells were thoroughly homogenized, and the cellular lipids were extracted with chloroform-methanol (2:1) (Bligh and Dyer (1959) Can. J. Biochem. Physiol., 37: 911-917). The organic phase was dried under a stream of nitrogen at 60° C., resuspended in 0.5 ml of carbon tetrachloride containing 3.5 mg of osmium tetroxide, and left at room temperature for 15 min. The reaction mixture was redried under nitrogen and resuspended in 70 μl of chloroform-methanol (9:1, vol/vol). The lipid extracts were transferred to silica gel plates (Kodak, Rochester, N.Y.) and developed in a chloroform-methanolwater (65:25:4) solvent system. Pure dipalmitoyl phosphatidylcholine was used as the chromatographic standard. The developed plates were stained with bromothymol blue, blotted, and vacuum dried for 5 min at 90° C. Chromatogram spots corresponding to the migration of saturated phosphatidylcholine were scraped from the plates and counted by liquid scintillation spectrometry. The amounts of [methyl^3H]choline chloride incorporated into saturated phosphatidylcholine were expressed as disintegrations per minute per milligram of protein.

ATII cells [4] = assay: Phospholipid synthesis ([3H]choline incorporation) by ATII cells treated in vitro; format: cell-based, rat; conditions: nicotine 1×10^−9 M, 24 h, in vitro
Description: Isolated ATII cells were cultured in DMEM+10% FBS in 6- and 96-well plates, 100-mm dishes, and T-75 flasks, as needed, and maintained at 37° C. in a humidified incubator containing 5% CO2-95% air. At 80-90% confluence, cells were processed for cell proliferation, differentiation, and metabolic studies (see below).
as §2

ATII cells [5] = assay: Western analysis of CCT-α and SP-B in ATII cells treated in vitro; format: cell-based, rat
Description: Protein extraction and Western blot analysis for SP-B and choline phosphate cytidylyltransferase-α (CCT-α) were performed using standard methods. […] Equal amounts of the protein from the supernatant were dissolved in electrophoresis sample buffer and subjected to SDS-polyacrylamide (4-12% gradient) gel electrophoresis followed by electrophoretic transfer to a nitrocellulose membrane. The membrane was blocked with 5% milk in 1× Tris-buffered saline containing 0.1% Tween 20 for 1 h and then incubated with rabbit anti-human SP-B polyclonal antibody (1:1,000 dilution; Chemicon) overnight at 4° C. The antibody for CCT-α (1:2,000 dilution) was a kind gift from Dr. Mallampalli (University of Iowa, Iowa City, Iowa). Subsequently, the membrane was washed with 1× Tris-buffered saline+0.1% Tween 20 and incubated with a 1:3,000 dilution of anti-rabbit horseradish peroxidase-linked whole antibody immunoglobulin G (Amersham, Arlington Heights, Ill.) for 1 h at room temperature, washed again, and developed with a chemiluminescent substrate (ECL, Amersham) following the manufacturer's protocol. The density of the SP-B and CCT-α bands was quantified using a scanning densitometer (Eagle Eye, Stratagene).

WI38 cells [6] = assay: Reversal experiment, immunofluorescence double staining (ADRP or lipid droplets and αSMA) in WI38 cells; format: cell-based, human
Description: Cells were grown in minimum essential medium (MEM) +10% fetal bovine serum at 37° C. in six-well plates, two well slides, and 60-mm and 100-mm culture dishes, as needed. […] Subsequently, the cells were treated with rosiglitazone (RGZ) (1×10^−5 M) (a PPARγ agonist), PTHrP (5×10^−7 M), or DBcAMP (1×10^−5 M) for 7 days, and the expression of PTHrP receptor, PPARγ, ADRP, calponin, and cSMA was determined by Western analysis and immunohistochemistry. Simultaneously, fibroblast function was characterized by measuring their capacity to take up triglycerides. Some experiments were performed in the presence of a specific PPARγ antagonist, GW9662. Medium containing fresh chemicals was added daily, and at the end of the experimental period the cells were processed as needed.
The lipogenic and myogenic status of cultured WI38 cells was assessed by simultaneous staining for either lipid droplets or ADRP and αSMA. Lipids were detected by using either oil red 0 staining or ADRP expression (polyclonal anti-ADRP 1:500), and αSMA expression was assessed by using anti-αSMA (1:1000, mouse monoclonal IgG2a, Sigma, catalog No. A2547) primary antibody. […] At the end of the experimental period, slides were fixed in freshly prepared 4% paraformaldehyde. […] Slides were rinsed three times for 5 min and then mounted and visualized under a fluorescence microscope.

WI38 cells [7] = assay: Reversal experiment, triglyceride (triolein) uptake by WI38 cells; format: cell-based, human; conditions: nicotine 7 days
whole lung tissue = conditions: nicotine 2 mg/kg i.p. once daily to dam, e6 to e20
WI38 cells [8] = assay: Reversal of nicotine-induced LIF-to-MYF transdifferentiation in WI38 cells, Western analysis
Description: The human embryonic cell line WI38 was obtained from the American Type Culture Collection (Rockville, Md.). Cells were grown in minimum essential medium (MEM) +10% fetal bovine serum at 37° C. in six-well plates, two well slides, and 60-mm and 100-mm culture dishes, as needed. […] Subsequently, the cells were treated with rosiglitazone (RGZ) (1×10^−5 M) (a PPARγ agonist), PTHrP (5×10^−7 M), or DBcAMP (1×10^−5 M) for 7 days, and the expression of PTHrP receptor, PPARγ, ADRP, calponin, and cSMA was determined by Western analysis and immunohistochemistry. Simultaneously, fibroblast function was characterized by measuring their capacity to take up triglycerides. Some experiments were performed in the presence of a specific PPARγ antagonist, GW9662. Medium containing fresh chemicals was added daily, and at the end of the experimental period the cells were processed as needed.
For Western blotting, cells were lysed using an extraction buffer [10 mM tris (hydroxymethyl) aminomethane (Tris, pH 7.5), 0.25 M sucrose, 1 mM EDTA, 5 mM benzamidine, 2 mM phenylmethylsulfonyl fluoride, and 10 (j.tg/ml each of pepstatin A, aprotinin, and leupeptin], and centrifuged at 140 g for 10 min (4° C.). Equal amounts of the protein (25 μg) from the supernatant were dissolved in electrophoresis sample buffer and were subjected to sodium dodecyl sulfate-polyacrylamide (4%-12% gradient) gel electrophoresis (SDS-PAGE) followed by electrophoretic transfer to a nitrocellulose memane. The nonspecific binding of antibody was blocked by washing with Tris-buffered saline (TBS) containing 0.1% Tween 20 (TBST) and 5% milk for 1 h. The blot was then subjected to two brief washes with TBST plus 0.5% Tween 20, incubated in TBST plus 0.1% Tween 20 and the specific primary antibodies (PPARγ 1:2000, Alexis Biochemicals, San Diego, Calif.; cSMA 1:50,000, Sigma, St. Louis, Mo.: ADRP 1:3000) overnight at 4° C. Blots were then washed in TBST plus 0.1% Tween 20 and then incubated for 1 h in secondary antibody, washed, and developed with a chemiluminescent substrate [enhanced chemiluminescence (ECL); Amersham, Arlington Heights, Ill.] following the manufacturer's protocol. The densities of the specific protein bands were quantified using a scanning densitometer (Eagle Eye II still video system, Stratagene, La Jolla, Calif.).

[9] = 7d nicotine-only group, 7 days after nicotine 10^−9 M

Question: How did the “change in ADRP protein level” value (WI38 cells [1]) turn out when `CN1CCCC1c1cccnc1` (stereo not drawn) [nicotine] was run?
Answer: −20±3%

Question: And the “change in PPAR protein level” value (WI38 cells [1])?
Answer: −24±2%

Question: What about the “change in PTHrP receptor protein level” value (WI38 cells [1]) of the same molecule?
Answer: −31±7%

Question: What about the “change in α-SMA protein level” value (WI38 cells [1]) of the same molecule?
Answer: +100±5%

Question: And the “decrease in triglyceride uptake” value (WI38 cells [2]; nicotine 1×10^−9 M for 24 h)?
Answer: ~30%

Question: And the “decrease in triglyceride uptake” value (WI38 cells [2]; nicotine 1×10^−9 M for 7 days)?
Answer: ~50%

Question: What about the “ATII cell proliferation in lung explants” value (fetal rat lung explants) of the same molecule?
Answer: significantly increased

Question: And the “[3H]choline incorporation into saturated phosphatidylcholine” value (ATII cells [3])?
Answer: significantly increased

Question: And the choline incorporation (ATII cells [4])?
Answer: significantly increased

Question: What about the SP-B expression (ATII cells [5]; direct nicotine treatment of cultured ATII cells) of the same molecule?
Answer: significant increase

Question: And the CCT-α protein expression (ATII cells [5]; in vitro nicotine exposure)?
Answer: significant increase

Question: And the “ADRP, lipid droplet and αSMA staining” value (WI38 cells [6])?
Answer: marked decreases in ADRP and lipid droplet staining and a marked increase in αSMA staining

Question: What about the triolein uptake (WI38 cells [7]) of the same molecule?
Answer: significant decrease

Question: What about the “αSMA mRNA expression in whole lung” value (whole lung tissue) of the same molecule?
Answer: significant increase

Question: And the “PTHrP receptor, PPARγ and ADRP mRNA expression in whole lung” value (whole lung tissue; vs controls, p<0.05)?
Answer: significant decrease

Question: What about the “αSMA expression vs untreated controls” value (WI38 cells [8]; 7 days after stopping nicotine (Example 3)) of the same molecule?
Answer: significantly higher

Question: What about the “expression of PTHrP receptor, PPARγ and ADRP vs untreated controls” value (WI38 cells [8]; [9]) of the same molecule?
Answer: significantly lower

Question: What about the “expression of αSMA and calponin vs untreated controls” value (WI38 cells [8]; [9]) of the same molecule?
Answer: significantly higher

Question: And the “PTHrP receptor expression vs untreated controls” value (WI38 cells [8]; nicotine 10^−9 M 7 days, then 7 days without nicotine (Example 3))?
Answer: significantly lower

Question: And the “expression of αSMA and calponin” value (WI38 cells [8]; nicotine 7 days, p<0.001 vs control, n=3)?
Answer: significant increases

Question: What about the “expression of PTHrP receptor, PPARγ and ADRP” value (WI38 cells [8]; nicotine 7 days, vs control, n=3) of the same molecule?
Answer: significant decreases
